Earlier results as cited in US5547668A, “Conjugates of folate anti-effector cell antibodies” (The Board of Trustees of The University of Illinois, priority 1995, dated 1996).

Tested on: FR
In the case of `C#CCN(Cc1ccc2nc(N)[nH]c(=O)c2c1)c1ccc(C(=O)N[C@@H](CCC(=O)O)C(=O)O)cc1` [CB3717, N^10-propargyl-5,8-dideazafolic acid], the “affinity for the FR” value is given as “bind with high affinity”. For `C#CCN(Cc1ccc2nc(C)[nH]c(=O)c2c1)c1ccc(C(=O)N[C@@H](CCC(=O)O)C(=O)O)cc1` [ICI-198,583, 2-deamino-2-methyl-N^10-propargyl-5,8-dideazafolic acid], the “affinity for the FR” value is given as “bind with high affinity”. In the case of `CN(Cc1cnc2nc(N)nc(N)c2n1)c1ccc(C(=O)N[C@@H](CCC(=O)O)C(=O)O)cc1` [MTX, methotrexate], the “affinity for the FR” value is given as “does not bind to MTX with high affinity”.
